Measured values reported in patent US6346549B1, “Treatment of pharmacology of drug misuse and other addictive disorders” (Knoll Pharmaceutical Company, priority 1999, dated 2002).

Columns and labels:
[1] = target: T1, [3H]Noradenaline reuptake in rat brain tissue (Rattus norvegicus); assay: in vitro [3H]noradrenaline reuptake inhibition in rat brain tissue; format: biochemical; conditions: monoamine reuptake inhibition, means of ≧3 separate determinations
T1 construct: in rat brain tissue; from tissue; host or cells: rat brain tissue

[2] = target: [3H]Dopamine reuptake in rat brain tissue (Rattus norvegicus, UniProt P23977); assay: biochemical
Sequence of [3H]Dopamine reuptake in rat brain tissue (P23977 whole entry): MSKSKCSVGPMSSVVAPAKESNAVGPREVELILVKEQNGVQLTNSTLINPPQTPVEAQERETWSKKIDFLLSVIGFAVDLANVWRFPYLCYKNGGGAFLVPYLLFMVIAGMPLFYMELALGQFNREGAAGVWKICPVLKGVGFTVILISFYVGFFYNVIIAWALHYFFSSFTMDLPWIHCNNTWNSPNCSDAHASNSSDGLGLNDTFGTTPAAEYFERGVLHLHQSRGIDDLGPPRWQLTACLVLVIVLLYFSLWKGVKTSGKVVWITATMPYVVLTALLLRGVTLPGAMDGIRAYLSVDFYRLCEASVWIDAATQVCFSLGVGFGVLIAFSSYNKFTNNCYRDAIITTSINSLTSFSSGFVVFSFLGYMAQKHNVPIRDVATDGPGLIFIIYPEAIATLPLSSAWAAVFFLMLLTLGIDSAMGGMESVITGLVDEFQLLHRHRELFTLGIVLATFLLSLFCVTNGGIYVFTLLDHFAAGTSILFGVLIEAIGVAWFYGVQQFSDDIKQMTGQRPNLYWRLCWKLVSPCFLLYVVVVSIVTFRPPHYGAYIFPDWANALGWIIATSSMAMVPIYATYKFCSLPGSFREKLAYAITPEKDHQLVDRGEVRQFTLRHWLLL

T1 sequence (Q63380 1-617): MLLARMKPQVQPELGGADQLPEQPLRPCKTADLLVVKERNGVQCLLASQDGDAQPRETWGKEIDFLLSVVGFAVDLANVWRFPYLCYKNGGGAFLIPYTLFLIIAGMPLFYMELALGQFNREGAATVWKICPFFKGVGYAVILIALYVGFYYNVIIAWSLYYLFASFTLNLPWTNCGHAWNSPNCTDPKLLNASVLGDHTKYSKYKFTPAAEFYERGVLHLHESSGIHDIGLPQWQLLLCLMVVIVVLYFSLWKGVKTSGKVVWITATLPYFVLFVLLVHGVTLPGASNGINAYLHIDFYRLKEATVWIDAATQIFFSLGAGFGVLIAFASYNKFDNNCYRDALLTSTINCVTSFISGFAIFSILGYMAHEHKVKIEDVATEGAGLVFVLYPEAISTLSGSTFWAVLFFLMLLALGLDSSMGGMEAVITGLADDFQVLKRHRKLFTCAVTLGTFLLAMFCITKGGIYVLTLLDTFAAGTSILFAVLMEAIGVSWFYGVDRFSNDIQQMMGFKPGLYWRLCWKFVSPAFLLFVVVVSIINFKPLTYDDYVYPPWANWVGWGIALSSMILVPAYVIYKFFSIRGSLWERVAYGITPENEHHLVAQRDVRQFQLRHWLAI

Q: What does the source list for CC(NC(C)(C)C)C(=O)c1cccc(Cl)c1 (centres unmarked) [Bupropion]?
A: Ki [1]: 2590 nM; Ki [2]: 409 nM
